Measurements taken from EPA's ToxValDB 9.5 (doi:10.2903/j.efsa.2010.1389).
≈ marks a conversion by molar mass, not a printed value.

Columns and labels:
Typhlodromus pyri = assay: LR50; higher = less toxic; details: acute; duration: 7 days; mortality
Lepomis macrochirus = details: acute; duration: 96 hours; mortality
Hypoaspis aculeifer = details: chronic/long-term; duration: 14 days
Bibionidae = details: chronic/long-term; duration: 28 days; development
Daphnia magna = details: chronic/long-term; duration: 21 days; reproduction
Apis mellifera = details: acute; duration: 48 hours; dermal; mortality

In the case of `CC(C)Oc1cc(-n2nc(C(C)(C)C)oc2=O)c(Cl)cc1Cl` [Oxadiazon], the LR50 (Typhlodromus pyri) was 150 g/ha, the LC50 (Lepomis macrochirus) was 1.2 µg/mL (≈ 3.48 µM) and the NOEC (Hypoaspis aculeifer) was 339 mg/kg. The LC50 (Colinus virginianus; acute, oral, diet, mortality) was greater than 730 mg/kg-day, the LD50 (Colinus virginianus; acute, oral, mortality) was greater than 2150 mg/kg-day and the NOEC (Colinus virginianus; reproduction developmental) was 90.8 mg/kg-day. It also gave an LC50 (Oncorhynchus mykiss; acute, duration: 96 hours, mortality) of 1.2 µg/mL (≈ 3.48 µM), an NOEC (Oncorhynchus mykiss; chronic/long-term, duration: 60 days, other) of 0.00088 mg/L and an LD50 (Rattus norvegicus; acute, oral, mortality) greater than 5000 mg/kg-day. It also gave an NOAEL (Rattus norvegicus; chronic) of 15 mg/kg-day, an NOAEL (Rattus norvegicus; chronic, duration: 2 years, organ weight) of 0.36 mg/kg-day and an NOAEL (Rattus norvegicus; developmental, development) of 12 mg/kg-day. For the same compound, the NOAEL (Rattus norvegicus; reproduction developmental, reproduction) was 5 mg/kg-day, the NOEC (Bibionidae) was 5 mg/L and the NOEC (Daphnia magna) was 0.03 mg/L. The LD50 (Apis mellifera) was greater than 100 µg/piece, the NOEC (Anas platyrhynchos; reproductive) was 106 mg/kg-day and the LC50 (Anas platyrhynchos; short-term, oral, feed, mortality) was greater than 1140 mg/kg-day. For the same compound, the LC50 (Tagia sp.; acute, duration: 14 days, mortality) was greater than 1000 mg/kg and the NOEC (Tagia sp.; chronic/long-term, duration: 8 weeks, reproduction) was 133 mg/kg.
